{
  "source": "patent EP0908457B1",
  "about": "“3-(1,2-benzisothiazol- and isoxazol-5-Y1)-2,4(1H,3H)-pyrimidinedione or thione and 3-(1,2-benzisothiazol- and isoxazol-5-y1)-4(3H)-pyrimidinone or thione herbicidal agents” (BASF AKTIENGESELLSCHAFT, priority 1997, dated 1999)",
  "key": {"[1]": {"system": "Monochoria vaginalis, Presl.", "experiment": "Preemergence weed control under flooded paddy conditions, MOOVA (Monochoria); further: meaning of each grade not given here", "format": "in vivo", "conditions": "preemergence, flooded paddy, rated three to four weeks after treatment"}, "[2]": {"system": "Cyperus serotinus, Rottb.", "experiment": "Postemergence weed control under flooded paddy conditions, CYPSE (Flatsedge)", "format": "in vivo", "conditions": "rated three to four weeks after treatment"}, "Cyperus iria [3]": {"system": "Cyperus iria", "experiment": "Preemergence weed control under flooded paddy conditions, CYPIR (Rice Flatsedge); further: meaning of each grade not given here", "format": "in vivo", "conditions": "preemergence, flooded paddy, rated three to four weeks after treatment"}, "[4]": {"system": "Monochoria vaginalis, Presl.", "experiment": "Postemergence weed control under flooded paddy conditions, MOOVA (Monochoria)", "format": "in vivo", "conditions": "rated three to four weeks after treatment"}, "Sagittaria pygmaea, L. [5]": {"system": "Sagittaria pygmaea, L.", "experiment": "Postemergence weed control under flooded paddy conditions, SAGPY (Arrowhead (Pygmaea))", "format": "in vivo", "conditions": "rated three to four weeks after treatment"}, "Cyperus iria [6]": {"system": "Cyperus iria", "experiment": "Postemergence weed control under flooded paddy conditions, CYPIR (Rice Flatsedge)", "format": "in vivo", "conditions": "rated three to four weeks after treatment"}, "[7]": {"system": "Echinochloa oryzoides (Ard.) Fritsch.", "experiment": "Postemergence weed control under flooded paddy conditions, ECHORC (Watergrass (Calif.))", "format": "in vivo", "conditions": "rated three to four weeks after treatment"}, "[8]": {"system": "Echinochloa oryzoides (Ard.) Fritsch.", "experiment": "Preemergence weed control under flooded paddy conditions, ECHORC (Watergrass (Calif.)); further: meaning of each grade not given here", "format": "in vivo", "conditions": "preemergence, flooded paddy, rated three to four weeks after treatment"}, "[9]": {"system": "Oryza sativa, (L.) Tebonnet", "experiment": "Rice tolerance to post-transplant applications under flooded paddy conditions (Example 187), ORYSAT (Rice, Tebonnet)", "conditions": "rated three to four weeks after treatment"}, "Sagittaria pygmaea, L. [10]": {"system": "Sagittaria pygmaea, L.", "experiment": "Preemergence weed control under flooded paddy conditions, SAGPY (Arrowhead (Pygmaea)); further: meaning of each grade not given here", "format": "in vivo", "conditions": "preemergence, flooded paddy, rated three to four weeks after treatment"}, "[11]": {"system": "Cyperus serotinus, Rottb.", "experiment": "Preemergence weed control under flooded paddy conditions, CYPSE (Flatsedge); further: meaning of each grade not given here", "format": "in vivo", "conditions": "preemergence, rated three to four weeks after treatment"}, "[12]": {"system": "Oryza sativa, (L.) Tebonnet", "experiment": "Rice tolerance to post-transplant applications under flooded paddy conditions (Example 188), ORYSAT (Rice, Tebonnet)", "conditions": "rated three to four weeks after treatment"}},
  "data": [
    {"smiles": "Cc1nsc2ccc(-n3c(=O)cc(C(F)(F)F)n(C)c3=O)cc12", "note": "[Example 6, 1-Methyl-3-(3-methyl-1,2-benzisothiazol-5-yl)-6-(trifluoromethyl)-2,4(1H,3H)-pyrimidinedione]", "values": [
      {"measurement": "herbicidal effect rating, MOOVA", "setting": "[1]; 0.0625 kg/ha", "value": 9.0},
      {"measurement": "herbicidal effect rating, MOOVA", "setting": "[1]; 0.1250 kg/ha", "value": 9.0},
      {"measurement": "herbicidal effect rating, MOOVA", "setting": "[1]; 0.2500 kg/ha", "value": 9.0},
      {"measurement": "herbicidal effect rating, MOOVA", "setting": "[1]; 0.5000 kg/ha", "value": 9.0},
      {"measurement": "herbicidal effect rating, CYPSE", "setting": "[2]; Rate 0.0313 kg/ha", "value": 0.0},
      {"measurement": "herbicidal effect rating, CYPSE", "setting": "[2]; Rate 0.0625 kg/ha", "value": 2.0},
      {"measurement": "herbicidal effect rating, CYPSE", "setting": "[2]; Rate 0.1250 kg/ha", "value": 7.0},
      {"measurement": "herbicidal effect rating, CYPSE", "setting": "[2]; Rate 0.2500 kg/ha", "value": 7.0},
      {"measurement": "herbicidal effect rating, CYPSE", "setting": "[2]; Rate 0.5000 kg/ha", "value": 9.0},
      {"measurement": "herbicidal effect rating, CYPIR", "setting": "Cyperus iria [3]; 0.0625 kg/ha", "value": 9.0},
      {"measurement": "herbicidal effect rating, CYPIR", "setting": "Cyperus iria [3]; 0.1250 kg/ha", "value": 9.0},
      {"measurement": "herbicidal effect rating, CYPIR", "setting": "Cyperus iria [3]; 0.2500 kg/ha", "value": 9.0},
      {"measurement": "herbicidal effect rating, CYPIR", "setting": "Cyperus iria [3]; 0.5000 kg/ha", "value": 9.0},
      {"measurement": "herbicidal effect rating, MOOVA", "setting": "[4]; Rate 0.0313 kg/ha", "value": 9.0},
      {"measurement": "herbicidal effect rating, MOOVA", "setting": "[4]; Rate 0.0625 kg/ha", "value": 9.0},
      {"measurement": "herbicidal effect rating, MOOVA", "setting": "[4]; Rate 0.1250 kg/ha", "value": 9.0},
      {"measurement": "herbicidal effect rating, MOOVA", "setting": "[4]; Rate 0.2500 kg/ha", "value": 9.0},
      {"measurement": "herbicidal effect rating, MOOVA", "setting": "[4]; Rate 0.5000 kg/ha", "value": 9.0},
      {"measurement": "herbicidal effect rating, SAGPY", "setting": "Sagittaria pygmaea, L. [5]; Rate 0.0313 kg/ha", "value": 2.0},
      {"measurement": "herbicidal effect rating, SAGPY", "setting": "Sagittaria pygmaea, L. [5]; Rate 0.0625 kg/ha", "value": 4.0},
      {"measurement": "herbicidal effect rating, SAGPY", "setting": "Sagittaria pygmaea, L. [5]; Rate 0.1250 kg/ha", "value": 6.0},
      {"measurement": "herbicidal effect rating, SAGPY", "setting": "Sagittaria pygmaea, L. [5]; Rate 0.2500 kg/ha", "value": 8.0},
      {"measurement": "herbicidal effect rating, SAGPY", "setting": "Sagittaria pygmaea, L. [5]; Rate 0.5000 kg/ha", "value": 9.0},
      {"measurement": "herbicidal effect rating, CYPIR", "setting": "Cyperus iria [6]; Rate 0.0313 kg/ha", "value": 9.0},
      {"measurement": "herbicidal effect rating, CYPIR", "setting": "Cyperus iria [6]; Rate 0.0625 kg/ha", "value": 9.0},
      {"measurement": "herbicidal effect rating, CYPIR", "setting": "Cyperus iria [6]; Rate 0.1250 kg/ha", "value": 9.0},
      {"measurement": "herbicidal effect rating, CYPIR", "setting": "Cyperus iria [6]; Rate 0.2500 kg/ha", "value": 9.0},
      {"measurement": "herbicidal effect rating, CYPIR", "setting": "Cyperus iria [6]; Rate 0.5000 kg/ha", "value": 9.0},
      {"measurement": "herbicidal effect rating, ECHORC", "setting": "[7]; Rate 0.0313 kg/ha", "value": 4.0},
      {"measurement": "herbicidal effect rating, ECHORC", "setting": "[7]; Rate 0.0625 kg/ha", "value": 7.0},
      {"measurement": "herbicidal effect rating, ECHORC", "setting": "[7]; Rate 0.1250 kg/ha", "value": 9.0},
      {"measurement": "herbicidal effect rating, ECHORC", "setting": "[7]; Rate 0.2500 kg/ha", "value": 9.0},
      {"measurement": "herbicidal effect rating, ECHORC", "setting": "[7]; Rate 0.5000 kg/ha", "value": 9.0},
      {"measurement": "herbicidal effect rating, ECHORC", "setting": "[8]; 0.0625 kg/ha", "value": 6.0},
      {"measurement": "herbicidal effect rating, ECHORC", "setting": "[8]; 0.1250 kg/ha", "value": 8.0},
      {"measurement": "herbicidal effect rating, ECHORC", "setting": "[8]; 0.2500 kg/ha", "value": 9.0},
      {"measurement": "herbicidal effect rating, ECHORC", "setting": "[8]; 0.5000 kg/ha", "value": 9.0},
      {"measurement": "herbicidal effect rating, ORYSAT (rice tolerance)", "setting": "[9]; 0.0625 kg/ha", "value": 8.0},
      {"measurement": "herbicidal effect rating, ORYSAT (rice tolerance)", "setting": "[9]; 0.1250 kg/ha", "value": 8.0},
      {"measurement": "herbicidal effect rating, ORYSAT (rice tolerance)", "setting": "[9]; 0.2500 kg/ha", "value": 8.0},
      {"measurement": "herbicidal effect rating, ORYSAT (rice tolerance)", "setting": "[9]; 0.5000 kg/ha", "value": 8.0},
      {"measurement": "herbicidal effect rating, SAGPY", "setting": "Sagittaria pygmaea, L. [10]; 0.0625 kg/ha", "value": 4.0},
      {"measurement": "herbicidal effect rating, SAGPY", "setting": "Sagittaria pygmaea, L. [10]; 0.1250 kg/ha", "value": 7.0},
      {"measurement": "herbicidal effect rating, SAGPY", "setting": "Sagittaria pygmaea, L. [10]; 0.2500 kg/ha", "value": 7.0},
      {"measurement": "herbicidal effect rating, SAGPY", "setting": "Sagittaria pygmaea, L. [10]; 0.5000 kg/ha", "value": 9.0},
      {"measurement": "herbicidal effect rating, CYPSE", "setting": "[11]; 0.0625 kg/ha", "value": 4.0},
      {"measurement": "herbicidal effect rating, CYPSE", "setting": "[11]; 0.1250 kg/ha", "value": 7.0},
      {"measurement": "herbicidal effect rating, CYPSE", "setting": "[11]; 0.2500 kg/ha", "value": 9.0},
      {"measurement": "herbicidal effect rating, CYPSE", "setting": "[11]; 0.5000 kg/ha", "value": 9.0},
      {"measurement": "herbicidal effect rating, ORYSAT (rice tolerance)", "setting": "[12]; Rate 0.0313 kg/ha", "value": 4.0},
      {"measurement": "herbicidal effect rating, ORYSAT (rice tolerance)", "setting": "[12]; Rate 0.0625 kg/ha", "value": 4.0},
      {"measurement": "herbicidal effect rating, ORYSAT (rice tolerance)", "setting": "[12]; Rate 0.1250 kg/ha", "value": 9.0},
      {"measurement": "herbicidal effect rating, ORYSAT (rice tolerance)", "setting": "[12]; Rate 0.2500 kg/ha", "value": 9.0},
      {"measurement": "herbicidal effect rating, ORYSAT (rice tolerance)", "setting": "[12]; Rate 0.5000 kg/ha", "value": 9.0}
    ]}
  ]
}
